Assay: The highest concentration employed in the cytotoxicity assay was reported
Type: functional

CC(=O)OC1CCn2c1nc1c2C(=O)C(C)=C(N2CC2)C1=O (stereo unspecified)
Concentration: 1 M

Source: ChEMBL document CHEMBL1127526, “A comparison of the cytotoxic and physical properties of aziridinyl quinone derivatives based on the pyrrolo[1,2-a]benzimidazole and pyrrolo[1,2-a]indole ring systems” (J Med Chem, 1994)
